We go through 47 compounds from patent publication US9994518B2, “Alpha-7 nicotinic acetylcholine receptor modulators and uses thereof” (MERCK SHARP & DOHME CORP., priority 2014, dated 2018).

The target in the experiment is T1, α7 nAChR (rat α7/CHO cells) (Rattus norvegicus, UniProt Q05941).
T1 construct: expressed in transfected cells; host or cells: CHO cells (α7/CHO)
T1 sequence (Q05941 23-502): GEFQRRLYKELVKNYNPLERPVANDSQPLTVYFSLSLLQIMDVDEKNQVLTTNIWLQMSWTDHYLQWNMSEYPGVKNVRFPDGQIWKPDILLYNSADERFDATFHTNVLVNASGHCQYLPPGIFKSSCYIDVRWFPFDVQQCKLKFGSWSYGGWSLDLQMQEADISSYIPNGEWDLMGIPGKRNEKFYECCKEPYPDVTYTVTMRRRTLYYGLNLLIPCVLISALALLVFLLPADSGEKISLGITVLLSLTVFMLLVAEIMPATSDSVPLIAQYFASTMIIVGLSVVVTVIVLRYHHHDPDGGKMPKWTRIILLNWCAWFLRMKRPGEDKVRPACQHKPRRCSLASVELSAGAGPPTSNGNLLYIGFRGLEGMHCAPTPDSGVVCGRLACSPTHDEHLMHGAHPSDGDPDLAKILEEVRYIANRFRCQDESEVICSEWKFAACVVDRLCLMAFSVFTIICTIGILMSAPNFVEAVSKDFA
The experiment can be described thus: Evaluation of modulators of α7 nAChRs using the IonFlux HT automated patch clamp system (potentiation of EC20 ACh-evoked currents). Conditions: percent potentiation of ACh (EC20, approx. 60 μM) response in α7/CHO cells; 6-point dose response 0.03-10 μM; whole cell patch clamp. It is filed as cell-based. How it is done: Evaluation of Modulators of α7 nAChRs Using the IonFlux^HT Automated Patch Clamp System
Acetylcholine was freshly prepared for each plate run and used at an EC20 concentration (approximately 60 μM for rat α7/CHO) to induce α7 nAChR currents on the IonFlux^HT. To prepare the ACh solution for a single plate, 6 μl of the 100 mM ACh stock was diluted into 10 ml of 0.3% DMSO/external solution
Test compounds were prepared for a 6-point dose response from 0.03-10 μM. Working stocks were prepared from serial dilutions of 10 mM DMSO stock solutions to give a final DMSO concentration of 0.3%. 80 μl of the final concentration of each compound was added to the appropriate wells in an IonFlux^HT assay plate.
2×T175 flasks of α7/CHO cells (˜60-70% confluent) were washed twice with PBS and trypsinized (2 ml) for 3.5 minutes at 37° C./5% CO2. Cells were collected in F-12K complete media, counted and the number required for the assay was calculated, for example, 2×10^6 cells in a final volume of 670 μl of external solution were required to load one zone (one quarter) of an IonFlux^HT assay plate. The correct number of cells was pelleted by centrifuge, the supernatant was discarded and the cell pellet was resuspend in external solution at the required concentration so that cells were added in a volume of 80 μl per well to the IonFlux^HT assay plate.
Calculation of the Effect of Compounds on ACh Mediated Currents in α7 nAChRs:
The effect of test compounds on EC20 ACh-evoked currents was calculated by the formula: […]
The rinse protocol was the initial step in preparation of the IonFlux^HT plate. 80 μl of MilliQ water was added to every well (except Out wells) and the IonFlux^HT assay plate was run through the water rinse protocol on the machine. At the end of the run, the water was discarded from the wells. This action was repeated twice.
Briefly, to prepare the plate for the assay aliquots of cells, compounds and internal and external solutions were added to wells of the prepared IonFlux^HT plate (80 μl/well) (solutions made to manufacturer's specifications). Automated whole cell patch-clamp recordings were made using the standard IonFlux^HT single application protocol. Vacuum was held at 6 psi/hg throughout the experiment and membrane potential was held at −80 mV for 35 sec and then at −60 mV during data acquisition. Two ACh (EC20) pulses were applied at the beginning of the assay, 90 seconds apart, to provide an ACh baseline response then cells were perfused with modulators for 89 sec before ACh (EC20) was applied for 1 s. The calculation of percent potentiation of the acetylcholine response for each well was performed by the data analysis software supplied with the IonFlux^HT.
The following compounds were tested in accordance with the above-procedure for activity and the EC50 values determined are reported: […]
(The patch-clamp technique gives a direct electrical read-out from membranes.)
In general, EC50 refers to the concentration that produces a half-maximal response. Regarding `COc1ccc(Cl)cc1OC[C@H]1[C@H](c2ccc(NS(C)(=O)=O)cc2)C1(C)C` (single isomer, unassigned) [Exp. 5], the EC50 is 193 nM.

Take `COc1ccc(OC[C@H]2[C@H](c3ccc(NS(C)(=O)=O)cc3)C2(C)C)cn1` (single isomer, unassigned) [Exp. 6]: the EC50 stood at 596 nM.

`Cc1cc(F)ccc1OC[C@H]1[C@H](c2ccc(NS(C)(=O)=O)cc2)C1(C)C` (single isomer, unassigned) [Exp. 7]: the EC50 came out at 1050 nM.

In the case of `Cc1cc(F)ccc1OC[C@H]1[C@H](c2ccc(NS(N)(=O)=O)cc2)C1(C)C` (single isomer, unassigned) [Exp. 8], the EC50 is 517 nM.

Regarding `Cc1ccc(F)cc1OC[C@H]1[C@H](c2ccc(NS(N)(=O)=O)cc2)C1(C)C` (single isomer, unassigned) [Exp. 9], the 50% effective concentration (EC50) is 1750 nM.

Take `CC1(C)[C@@H](COc2ccc(F)cc2C(F)(F)F)[C@@H]1c1ccc(S(N)(=O)=O)cc1` (single isomer, unassigned) [Exp. 10]: the EC50 turned out to be 429 nM.

As for `COc1ccc(Cl)cc1OC[C@H]1[C@H](c2ccc(S(N)(=O)=O)cc2)C1(C)C` (single isomer, unassigned) [Exp. 11], the EC50 turned out to be 3640 nM.

With `COc1ccc(Cl)cc1OC[C@@H]1[C@@H](c2ccc(S(N)(=O)=O)cc2)C1(C)C` (single isomer, unassigned) [Exp. 12], the EC50 came out at 1350 nM.

As for `Cc1ccc(SC[C@H]2[C@H](c3ccc(S(N)(=O)=O)cc3)C2(C)C)cc1` (single isomer, unassigned) [Exp. 13], the EC50 came out at 70 nM.

As to `COc1ccc(Cl)cc1SC[C@@H]1[C@@H](c2ccc(S(N)(=O)=O)cc2)C1(C)C` (single isomer, unassigned) [Exp. 14], the EC50 came to 452 nM.

In the case of `Cc1ccc(SC[C@@H]2[C@@H](c3ccc(S(N)(=O)=O)cc3)C2(C)C)cc1` (single isomer, unassigned) [Exp. 15], the EC50 was 75 nM.

As to `COc1ccc(Cl)cc1SC[C@H]1[C@H](c2ccc(S(N)(=O)=O)cc2)C1(C)C` (single isomer, unassigned) [Exp. 16], the EC50 amounted to 125 nM.

Regarding `COc1ccc(OC[C@H]2[C@H](c3ccc(NS(N)(=O)=O)cc3)C2(C)C)cn1` (single isomer, unassigned) [Exp. 17], the EC50 came to 4360 nM.

With `Cc1ccc(OC[C@H]2[C@H](c3ccc(NS(N)(=O)=O)cc3)C2(C)C)cn1` (single isomer, unassigned) [Exp. 18], the EC50 amounted to 2300 nM.

For `Cc1ncccc1OC[C@H]1[C@H](c2ccc(NS(C)(=O)=O)cc2)C1(C)C` (single isomer, unassigned) [Exp. 19], the EC50 was determined as 350 nM.

Take `Cc1ncccc1OC[C@H]1[C@H](c2ccc(NS(N)(=O)=O)cc2)C1(C)C` (single isomer, unassigned) [Exp. 20]: the EC50 is 3300 nM.

For `COc1ccc(OC[C@@H]2[C@@H](c3ccc(S(N)(=O)=O)cc3)C2(C)C)c(OC)n1` (single isomer, unassigned) [Exp. 21], the EC50 stood at 3880 nM.

Turning to `CC1(C)[C@H](COc2cc(F)ccc2OC(F)F)[C@H]1c1ccc(S(N)(=O)=O)cc1` (single isomer, unassigned) [Exp. 22], the EC50 amounted to 743 nM.

For `COc1cc(Cl)ccc1OC[C@H]1[C@H](c2ccc(NS(N)(=O)=O)cc2)C1(C)C` (single isomer, unassigned) [Exp. 23], the EC50 stood at 546 nM.

In the case of `COc1cc(F)ccc1OC[C@H]1[C@H](c2ccc(NS(N)(=O)=O)cc2)C1(C)C` (single isomer, unassigned) [Exp. 24], the EC50 amounted to 906 nM.

Consider `CC1(C)[C@@H](COc2cccnc2)[C@@H]1c1ccc(S(N)(=O)=O)cc1` (single isomer, unassigned) [Exp. 25], for which the EC50 came out at 4160 nM.

For the compound `COc1ccc(OC[C@H]2[C@H](c3ccc(S(N)(=O)=O)cc3)C2(C)C)c(OC)n1` (single isomer, unassigned) [Exp. 26], the half-maximal effective concentration (EC50) came out at 606 nM.

Consider `Cc1ccc(OC[C@@H]2[C@@H](c3ccc(S(N)(=O)=O)cc3)C2(C)C)cn1` (single isomer, unassigned) [Exp. 27], for which the EC50 was determined as 3970 nM.

In the case of `CC1(C)[C@H](COc2ccc(F)cc2C#N)[C@H]1c1ccc(S(N)(=O)=O)cc1` (single isomer, unassigned) [Exp. 28], the EC50 stood at 3100 nM.

Turning to `COc1cc(F)ccc1OC[C@@H]1[C@@H](c2ccc(S(N)(=O)=O)cc2)C1(C)C` (single isomer, unassigned) [Exp. 29], the concentration giving a half-maximal response (EC50) came to 1240 nM.

As to `COc1cc(F)ccc1OC[C@H]1[C@H](c2ccc(S(N)(=O)=O)cc2)C1(C)C` (single isomer, unassigned) [Exp. 30], the EC50 was 2520 nM.

For the compound `Cc1cc(F)ccc1OC[C@H]1[C@H](c2ccc(S(N)(=O)=O)cc2)C1(C)C` (single isomer, unassigned) [Exp. 31], the concentration giving a half-maximal response (EC50) was found to be 200 nM.

In the case of `CC1(C)[C@@H](COc2ccc(F)cc2C#N)[C@@H]1c1ccc(S(N)(=O)=O)cc1` (single isomer, unassigned) [Exp. 32], the EC50 is 811 nM.

Regarding `Cc1ccc(OC[C@H]2[C@H](c3ccc(S(N)(=O)=O)cc3)C2(C)C)cn1` (single isomer, unassigned) [Exp. 33], the EC50 turned out to be 546 nM.

For the compound `Cc1ncccc1OC[C@H]1[C@H](c2ccc(S(N)(=O)=O)cc2)C1(C)C` (single isomer, unassigned) [Exp. 34], the EC50 stood at 1620 nM.

As to `Cc1cc(F)ccc1OC[C@@H]1[C@@H](c2ccc(S(N)(=O)=O)cc2)C1(C)C` (single isomer, unassigned) [Exp. 35], the EC50 amounted to 395 nM.

`COc1ccc(F)cc1OC[C@H]1[C@H](c2ccc(S(N)(=O)=O)cc2)C1(C)C` (single isomer, unassigned) [Exp. 36]: the EC50 turned out to be 164 nM.

Turning to `N#Cc1cc(F)ccc1OC[C@@H]1C[C@H]1c1ccc(S(N)(=O)=O)cc1` (single isomer, unassigned) [Exp. 37], the EC50 was 6000 nM.

Take `NS(=O)(=O)c1ccc([C@@H]2C[C@H]2COc2ccc(F)cc2C(F)(F)F)cc1` (single isomer, unassigned) [Exp. 38]: the EC50 was determined as 1140 nM.

As for `COc1ccc(OC[C@@H]2C[C@H]2c2ccc(S(N)(=O)=O)cc2)c(OC)n1` (single isomer, unassigned) [Exp. 39], the EC50 is 5360 nM.

Take `COc1ccc(Cl)cc1OC[C@@H]1C[C@H]1c1ccc(S(N)(=O)=O)cc1` (single isomer, unassigned) [Exp. 40]: the EC50 is 1060 nM.

Consider `COc1cc(F)ccc1OC[C@@H]1C[C@H]1c1ccc(S(N)(=O)=O)cc1` (single isomer, unassigned) [Exp. 41], for which the EC50 is 2590 nM.

Regarding `CC1(C)[C@H](COc2ccccc2OC(F)F)[C@H]1c1ccc(S(N)(=O)=O)cc1` (single isomer, unassigned) [Exp. 42], the EC50 was 625 nM.

Turning to `COc1ccc(F)cc1OC[C@@H]1[C@@H](c2ccc(S(N)(=O)=O)cc2)C1(C)C` (single isomer, unassigned) [Exp. 43], the half-maximal effective concentration (EC50) came out at 1560 nM.

For `COc1cc(F)ccc1OC[C@H]1C[C@@H]1c1ccc(S(N)(=O)=O)cc1` (single isomer, unassigned) [Exp. 44], the EC50 amounted to 2940 nM.

Turning to `N#Cc1cc(F)ccc1OC[C@H]1C[C@@H]1c1ccc(S(N)(=O)=O)cc1` (single isomer, unassigned) [Exp. 45], the EC50 came to 2510 nM.

Regarding `NS(=O)(=O)c1ccc([C@H]2C[C@@H]2COc2ccc(F)cc2C(F)(F)F)cc1` (single isomer, unassigned) [Exp. 46], the EC50 was determined as 701 nM.

Turning to `COc1ccc(Cl)cc1OC[C@H]1C[C@@H]1c1ccc(S(N)(=O)=O)cc1` (single isomer, unassigned) [Exp. 47], the EC50 stood at 3700 nM.

On to `COc1ccccc1CC[C@@H]1[C@@H](c2ccc(S(N)(=O)=O)cc2)C1(C)C` (single isomer, unassigned) [Exp. 48], for which the EC50 was determined as 612 nM.

For `COc1ccc(Cl)cc1CC[C@@H]1[C@@H](c2ccc(S(N)(=O)=O)cc2)C12CCCC2` (single isomer, unassigned) [Exp. 49], the EC50 is 64 nM.

Turning to `COc1ccc(Cl)cc1CC[C@H]1[C@H](c2ccc(S(N)(=O)=O)cc2)C12CCCC2` (single isomer, unassigned) [Exp. 50], the EC50 was 190 nM.

Regarding `COc1ccc(Cl)cc1CC[C@H]1C[C@@H]1c1ccc(S(N)(=O)=O)cc1` (single isomer, unassigned) [Exp. 51], the EC50 was 626 nM.
